Test results as given in PMC4027965 (Molecular imaging, 2013).

Test: in vivo
Conditions: female, athymic nude, mouse, liver, iv, 3.7 MBq (100 uCi), total radioactivity

N=C(N)NCCC[C@@H]1NC(=O)[C@H](CSC2CC(=O)N(CCNC(=O)CCCC(=O)Nc3ccc(C4=NNC(c5ccccn5)=C5CCC(OCCF)CCCC45)nc3)C2=O)NC(=O)[C@@H](Cc2ccc(O)cc2)NC(=O)[C@H](CC(=O)O)NC(=O)CNC1=O (stereo partly shown) [^18F-TTM-RGD] showed a tissue uptake at 2 h of 2.35 ± 0.24 %ID/g.
